This passage reports logP and logD results from the SangsterLogP compilation.

SMILES strings stand for the structures.

The data set can be described thus: method code SF, from Hansch, C. & Leo, A. (1987). Log P database [Dataset]. Pomona College Medicinal Chemistry Project.

As for `CC(=O)Nc1ccc(C(C)(C)C)cc1`, the logP (as a rule, the decadic logarithm of the partition coefficient of the neutral form, usually between octanol and water) turned out to be 3.05.
The same measure, in the same setting: with `NC(=O)c1ccc(I)cc1` the figure was 1.99; with `CC(=O)c1cccc(OC(=O)N(C)C)c1`, 1.18.
Consider `O=C(O)c1ccccc1Oc1ccccc1`, for which, under “pH 1.0”, the logD – broadly, lipophilicity at a set pH, counting ionised and neutral species – stood at 3.11.
In turn, `Cc1ccc(/C=C/[N+](=O)[O-])cc1` gave a logP of 2.66.
Regarding `O=C(CCc1ccccc1)Nc1ccc(Cl)c(Cl)c1`, the logP is 4.85.
`Brc1cccs1` displayed a logP of 2.75.
Same read-out and setting: with `COc1ccc2[nH]c(CCCCc3nc4cc(OC)ccc4[nH]3)nc2c1` the figure was 1.42.
`CN(C)CCCCc1cccnc1`: the logD (pH 11.0) is 1.49.
In the case of `OC(O)(C(F)(F)F)C(F)(F)F`, the log partition coefficient (logP) was found to be 1.46.
Same read-out and setting: with `c1ccc(CSc2nnc[nH]2)cc1` the figure was 1.45; with `Cc1csc(C=Cc2ccc([N+](=O)[O-])o2)n1`, 1.53.
As for `CC(=O)c1ccc(C#N)cc1`, where the note is “pH 7.0”, the logD is 1.22.
On to `CCCOc1ccccc1`, for which the log partition coefficient (logP) came out at 3.18.
Still for that read-out and setting: with `O=NN(CCCl)C(=O)NC1CS(=O)(=O)CS(=O)(=O)C1` the figure was -0.94; with `CCCCN(C)C`, 1.7.
`O=C(O)CNc1ccccc1` yielded a logP of 0.62.
Still for that read-out and setting: with `CC1=Nc2c(I)cc(Cl)cc2S(=O)(=O)N1` the figure was 1.81.
`O=C1c2c(O)ccc(O)c2C(=O)c2c(NCCNCCO)ccc(NCCNCCO)c21` gave a logP of 0.07.
Consider `Clc1nnnn1-c1ccccc1`, for which the logP is 1.48.
On the same count and under the same terms, for `Cc1ccc(CO)cc1` the value was 1.59; for `COP(=O)(NCC(C)C)Oc1cc(Cl)c(Cl)cc1Cl` (configuration not stated), 3.86; for `CC1=Nc2cc(N)c(Cl)cc2S(=O)(=O)N1`, 0.63.
Where the note is “pH 8.0”, `CC(=O)OC(OC(C)=O)c1ccc([N+](=O)[O-])o1` gave a logD of 1.06.
The molecule `CCCC1=Nc2cc(Cl)ccc2S(=O)(=O)N1` gave a logP of 2.04.
Same read-out and setting: with `O=Cc1cccc(Oc2ccccc2)c1` the figure was 3.38; with `CC(=O)CCN(C)c1ccc(S(=O)(=O)N(C)C)cc1`, 0.23.
Where the note is “pH 11.0”, `CNCc1cccnc1` showed a log distribution coefficient (logD) of 0.39.
For the molecule `CN(C(=O)CCBr)c1ccc(S(=O)(=O)N(C)C)cc1`, the logP is 1.13.
Same read-out and setting: with `O=C(O)c1cccc(CSc2ccccc2)c1O` the figure was 4.28; with `CC1=NS(=O)(=O)c2ccc(C(F)(F)F)cc2N1`, 1.59; with `O=[N+]([O-])c1ccc(OCCn2ccnn2)cc1`, 1.19.
Still for that read-out and setting: with `CC(C)(C)N` the figure was 0.4.
Same read-out and setting: with `CNC(=O)C=Cc1ccccc1` the figure was 1.81; with `O=NN(CCCl)C(=O)NC12CC3CC(CC(C3)C1)C2`, 3.56.
`CCC1(c2ccccc2)NC(=O)NC1=O` (configuration not stated) had a log partition coefficient (logP) of 1.53.
Molecule `CO[C@H]1O[C@H](CO)[C@@H](O)[C@H](NC(=O)N(C)N=O)[C@H]1O` had a logD (pH 7.4) of -1.45.
Molecule `O=C(O)c1cc(=O)c2cc3c(cc2o1)CCCC3` yielded a lipophilicity (logP) of 3.4.
Take `O=C(CCCN1CCC(n2c(=O)[nH]c3ccccc32)CC1)c1ccc(F)cc1`: the logD (pH 7.4) is 3.91.
Consider `OC(c1nc2cc(Cl)ccc2[nH]1)C(O)c1nc2cc(Cl)ccc2[nH]1` (configuration not stated), for which the logP stood at 1.21.
The same measure, in the same setting: with `O=C1OC(C2CCCCC2)c2ccccc21` (configuration not stated) the figure was 3.34.
As to `O=C(O)COc1ccccc1F`, the logD (pH 1.0) worked out at 1.39.
`COc1ccccc1C(=O)N(C)C` displayed a logP of 0.71.
Still for that read-out and setting: with `CN(C)C(=O)c1cccs1` the figure was 0.75.
With `NNc1ncnc2c([C@@H]3O[C@H](CO)[C@@H](O)[C@H]3O)n[nH]c12`, the logP was -1.42.
The same measure, in the same setting: for `COP(=O)(OC)Oc1ccccc1` the value was 1.22.
Same read-out and setting: with `CCCCCCC1OC(=O)c2ccccc21` (configuration not stated) the figure was 3.55; with `CN(C)C(=O)Cc1cccs1`, 0.65; with `CC(C)C1=Nc2cc(Cl)ccc2S(=O)(=O)N1`, 2.
Regarding `COc1ccc(N2C(N)=NC(N)=NC2(C)C)cc1`, where the note is “pH 13.0”, the logD was found to be 0.4.
In turn, `N#Cc1c[nH]c(=O)[nH]c1=O` registered a logD (pH 1.0) of -0.93.
`CCOC(CCC#N)OCC` gave a logP of 0.75.
